Experimental data taken from US9765105B2, “Macrolide compound” (Pulike Biological Engineering, Inc., priority 2013, dated 2017).

Experiments:
Experiment in all cases: in vitro susceptibility, MIC by mini broth dilution
Type in all cases: cell-based
[1] = system: Haemophilus parasuis
Experimental: (§1) in vitro tests of susceptibility of the compounds according to the present disclosure against bacterial strains commonly used in laboratories. In accordance with the Performance Standards for Antimicrobial Disk Susceptibility Tests: Approved Standard published by the US National Committee for Clinical Laboratory Standards, the antibacterial activities of compounds prepared according to examples 5 to 187 were tested. The MICs (minimum inhibitory concentration) of the medicaments prepared according to the examples on the following bacterial strains were measured through mini broth dilution technique. Staphylococcus aureus CVCC26003, Streptococcus equines CVCC556. Actinobacillus pleuropneumoniae CVCC262, Haemophilus parasuis, and Pasteurella multocida CVCC399, which were purchased from the Control Institute of Veterinary Bioproducts and Pharmaceuticals, China. 4.1.2 Culture Media for the Rest Four Bacterial Strains. Liquid culture medium: […] Solid culture medium: […] The strains were taken out of a refrigerator at −20° C. to be revived, and were spreaded by streaking on the solid culture medium with an inoculating loop. The inoculated culture medium was cultured at 35° C. in a constant temperature incubator for 20 h. […] were selected from a well-grown culture plate and streaked on the solid culture medium. The inoculated culture medium was cultured at 35° C. in the constant temperature incubator for 20 h. […] A 96-well plate was used, and 100 μl of DMSO was added into each of wells 2 to 11, and 200 μl of ready-prepared medicament solution was added into the 1st well, 100 μl of the medicament solution was extracted from the 1st well and added into the 2nd well. Double dilution was performed until the 11th well, thereby forming 11 gradients. In this case, compound of parent plate was prepared. 3 μl of double diluted medicament solution was extracted with a 12-channel pipettor and added into wells 1-11 of a new disposable 96-well culture plate. The 12th well thereof is a control well. For each medicament, there are two adjacent rows which are parallel. The transferred compound plate was reserved for later use. […] The dilution ratio was recorded, and the bacterial liquid for the tests was diluted according to the recorded dilution ratio. Subsequently, the bacterial suspension and the liquid culture medium were diluted in the proportion of 1:200. The diluted solution was reserved for later use.

[2] = system: Pasteurella multocida CVCC399; details: strain CVCC399
Experimental: as §1

[3] = system: Actinobacillus pleuropneumoniae CVCC262; details: strain CVCC262
Experimental: as §1

[4] = system: Streptococcus equines CVCC556; details: strain CVCC556
Experimental: as §1

[5] = system: Staphylococcus aureus CVCC26003; details: strain CVCC26003
Experimental: in vitro tests of susceptibility of the compounds according to the present disclosure against bacterial strains commonly used in laboratories. In accordance with the Performance Standards for Antimicrobial Disk Susceptibility Tests: Approved Standard published by the US National Committee for Clinical Laboratory Standards, the antibacterial activities of compounds prepared according to examples 5 to 187 were tested. The MICs (minimum inhibitory concentration) of the medicaments prepared according to the examples on the following bacterial strains were measured through mini broth dilution technique. Staphylococcus aureus CVCC26003, Streptococcus equines CVCC556. Actinobacillus pleuropneumoniae CVCC262, Haemophilus parasuis, and Pasteurella multocida CVCC399, which were purchased from the Control Institute of Veterinary Bioproducts and Pharmaceuticals, China. 4.1.1 Culture Medium for Staphylococcus aureus CVCC26003 Liquid culture medium: CAMHB. […] Solid culture medium: NINA prepared according to the specification of the final product. The strains were taken out of a refrigerator at −20° C. to be revived, and were spreaded by streaking on the solid culture medium with an inoculating loop. The inoculated culture medium was cultured at 35° C. in a constant temperature incubator for 20 h. […] were selected from a well-grown culture plate and streaked on the solid culture medium. The inoculated culture medium was cultured at 35° C. in the constant temperature incubator for 20 h. […] A 96-well plate was used, and 100 μl of DMSO was added into each of wells 2 to 11, and 200 μl of ready-prepared medicament solution was added into the 1st well, 100 μl of the medicament solution was extracted from the 1st well and added into the 2nd well. Double dilution was performed until the 11th well, thereby forming 11 gradients. In this case, compound of parent plate was prepared. 3 μl of double diluted medicament solution was extracted with a 12-channel pipettor and added into wells 1-11 of a new disposable 96-well culture plate. The 12th well thereof is a control well. For each medicament, there are two adjacent rows which are parallel. The transferred compound plate was reserved for later use. […] The dilution ratio was recorded, and the bacterial liquid for the tests was diluted according to the recorded dilution ratio. Subsequently, the bacterial suspension and the liquid culture medium were diluted in the proportion of 1:200. The diluted solution was reserved for later use.

SMILES	MIC values, Haemophilus parasuis [1] [ug/mi]	MIC values, Pasteurella multocida CVCC399 [2] [ug/mi]	MIC values, Actinobacillus pleuropneumoniae CVCC262 [3] [ug/mi]	MIC values, Streptococcus equines CVCC556 [4] [ug/mi]	MIC values, Staphylococcus aureus CVCC26003 [5] [ug/mi]
CCC(CO)NC[C@]1(O)[C@H](C)O[C@@H](O[C@H]2[C@H](C)[C@@H](O[C@@H]3O[C@H](C)C[C@H](N(C)C)[C@H]3O)[C@](C)(O)C[C@@H](C)NC[C@H](C)[C@@H](O)[C@](C)(O)[C@@H](CC)OC(=O)[C@@H]2C)C[C@@]1(C)OC (stereo partly drawn) [syzx-51, (2R,3S,4R,5S,8R,10R,11R,12S,13S,14R)-13-[(2,6-dideoxy-3-C-methyl-3-O-methyl-4-C-[(1-hydroxymethyl-propylamino)-methyl]-α-L-ribopyranosyl)oxy]-2-ethyl-3,4,10-trihydroxy-3,5,8,10,12,14-hexamethyl-11-[[3,4,6-trideoxy-3-(dimethylamino)-β-D-xylo-hexopyranosy]oxy]-1-oxa-7-azacyclopentadecan-15-one]	2	0.5	1	1	0.5
CCCN1C[C@H](C)[C@@H](O)[C@](C)(O)[C@@H](CC)OC(=O)[C@H](C)[C@@H](O[C@H]2C[C@@](C)(OC)[C@](O)(CNc3ccc(Cl)cc3C)[C@H](C)O2)[C@H](C)[C@@H](O[C@@H]2O[C@H](C)C[C@H](N(C)C)[C@H]2O)[C@](C)(O)C[C@H]1C [syzx-197]	0.25	1	0.5	0.25	0.25
CC[C@H]1OC(=O)[C@H](C)[C@@H](O[C@H]2C[C@@](C)(OC)[C@](O)(CNc3ccc(Cl)nn3)[C@H](C)O2)[C@H](C)[C@@H](O[C@@H]2O[C@H](C)C[C@H](N(C)C)[C@H]2O)[C@](C)(O)C[C@@H](C)NC[C@H](C)[C@@H](O)[C@]1(C)O [syzx-32, (2R,3S,4R,5S,8R,10R,11R,12S,13S,14R)-13-[(2,6-dideoxy-3-C-methyl-3-O-methyl-4-C-[(6-chloro-pyridazin-3-yl-amino)-methyl]-α-L-ribopyranosyl)oxy]-2-ethyl-3,4,10-trihydroxy-3,5,8,10,12,14-hexamethyl-11-[[3,4,6-trideoxy-3-(dimethylamino)-β-D-xylo-hexopyranosy]oxy]-1-oxa-7-azacyclopentadecan-15-one]	0.25	1	0.5	0.25	0.5
CCCN1C[C@H](C)[C@@H](O)[C@](C)(O)[C@@H](CC)OC(=O)[C@H](C)[C@@H](O[C@H]2C[C@@](C)(OC)[C@](O)(CNCc3cnc(C)cn3)[C@H](C)O2)[C@H](C)[C@@H](O[C@@H]2O[C@H](C)C[C@H](N(C)C)[C@H]2O)[C@](C)(O)C[C@H]1C [syzx-165]	0.25	1	0.25	0.25	0.25
CCCN1C[C@H](C)[C@@H](O)[C@](C)(O)[C@@H](CC)OC(=O)[C@H](C)[C@@H](O[C@H]2C[C@@](C)(OC)[C@](O)(CNC(=O)C(F)(F)F)[C@H](C)O2)[C@H](C)[C@@H](O[C@@H]2O[C@H](C)C[C@H](N(C)C)[C@H]2O)[C@](C)(O)C[C@H]1C [syzx-137]	0.5	2	0.5	1	0.5
CCCN1C[C@H](C)[C@@H](O)[C@](C)(O)[C@@H](CC)OC(=O)[C@H](C)[C@@H](O[C@H]2C[C@@](C)(OC)[C@](O)(CNc3ccc(C)o3)[C@H](C)O2)[C@H](C)[C@@H](O[C@@H]2O[C@H](C)C[C@H](N(C)C)[C@H]2O)[C@](C)(O)C[C@H]1C [syzx-178]	4	4	2	0.5	4
CCCN1C[C@H](C)[C@@H](O)[C@](C)(O)[C@@H](CC)OC(=O)[C@H](C)[C@@H](O[C@H]2C[C@@](C)(OC)[C@](O)(CNc3ccc(Cl)cc3Cl)[C@H](C)O2)[C@H](C)[C@@H](O[C@@H]2O[C@H](C)C[C@H](N(C)C)[C@H]2O)[C@](C)(O)C[C@H]1C [syzx-231]	0.25	0.5	0.25	0.25	0.25
CCCN1C[C@H](C)[C@@H](O)[C@](C)(O)[C@@H](CC)OC(=O)[C@H](C)[C@@H](O[C@H]2C[C@@](C)(OC)[C@](O)(CNC(CC)CO)[C@H](C)O2)[C@H](C)[C@@H](O[C@@H]2O[C@H](C)C[C@H](N(C)C)[C@H]2O)[C@](C)(O)C[C@H]1C (stereo partly shown) [syzx-151]	0.25	0.5	0.25	0.25	0.25
CC[C@H]1OC(=O)[C@H](C)[C@@H](O[C@H]2C[C@@](C)(OC)[C@](O)(CNc3ccc4ncccc4c3)[C@H](C)O2)[C@H](C)[C@@H](O[C@@H]2O[C@H](C)C[C@H](N(C)C)[C@H]2O)[C@](C)(O)C[C@@H](C)NC[C@H](C)[C@@H](O)[C@]1(C)O [syzx-99, (2R,3S,4R,5S,8R,10R,11R,12S,13S,14R)-13-[(2,6-dideoxy-3-C-methyl-3-O-methyl-4-C-[(quinolin-6-yl-amino)-methyl]-α-L-ribopyranosyl)oxy]-2-ethyl-3,4,10-trihydroxy-3,5,8,10,12,14-hexamethyl-11-[[3,4,6-trideoxy-3-(dimethylamino)-β-D-xylo-hexopyranosy]oxy]-1-oxo-7-azacyclopentadecan-15-one]	4	8	128	2	4
CCCN1C[C@H](C)[C@@H](O)[C@](C)(O)[C@@H](CC)OC(=O)[C@H](C)[C@@H](O[C@H]2C[C@@](C)(OC)[C@](O)(CNc3ccc(C)c(C)c3)[C@H](C)O2)[C@H](C)[C@@H](O[C@@H]2O[C@H](C)C[C@H](N(C)C)[C@H]2O)[C@](C)(O)C[C@H]1C [syzx-184]	2	4	2	0.5	2
CCCN1CC(C)C(O)C(C)(O)C(CC)OC(=O)C(C)C(OC2CC(C)(OC)C(O)(CNCCN3CCCC3)C(C)O2)C(C)C(OC2OC(C)CC(N(C)C)C2O)C(C)(O)CC1C (stereo not shown) [syzx-190]	0.25	1	0.5	0.25	0.25
